Experimental data published in paper PMC12112332, “Characterization of Novel and Known Activators of Cannabinoid Receptor Subtype 2 Reveals Mixed Pharmacology That Differentiates Mycophenolate Mofetil and GW-842,166X from MDA7” (International Journal of Molecular Sciences, 2025).
pEC50: −log10 of the molar value. Like-named read-outs stand apart in the source and are kept apart here.

Tests used:
Type in all cases: cell-based
[1] = biological target: T1, M4 muscarinic receptor expressed in HEK/GIRK cells (no CB receptor) (Homo sapiens, UniProt P08173); test: Thallium flux assay in parental HEK/GIRK cells (no CB receptor), acetylcholine as agonist; conditions: presence of EC20 acetylcholine, cells without CB receptor
T1 construct: host or cells: HEK/GIRK cells without CB receptor
T1 sequence (P08173 1-479): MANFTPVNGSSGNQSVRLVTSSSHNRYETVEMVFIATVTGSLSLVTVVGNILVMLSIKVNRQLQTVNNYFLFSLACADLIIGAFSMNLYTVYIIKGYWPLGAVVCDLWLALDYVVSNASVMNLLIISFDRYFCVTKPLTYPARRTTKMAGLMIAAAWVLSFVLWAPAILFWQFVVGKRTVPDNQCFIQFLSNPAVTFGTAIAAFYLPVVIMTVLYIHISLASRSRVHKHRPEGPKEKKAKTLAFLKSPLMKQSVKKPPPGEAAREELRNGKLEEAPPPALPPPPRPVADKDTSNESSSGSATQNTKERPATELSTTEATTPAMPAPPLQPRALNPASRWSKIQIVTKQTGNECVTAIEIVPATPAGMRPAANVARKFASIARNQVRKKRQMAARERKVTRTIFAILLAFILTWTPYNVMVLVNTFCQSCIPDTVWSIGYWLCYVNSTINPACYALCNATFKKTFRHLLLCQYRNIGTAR
Description: Mycophenolate mofetil is an immunosuppressant used to prevent organ transplant rejection and to treat autoimmune disorders such as lupus. To determine if mycophenolate mofetil exerts its activity in the thallium flux assay through rCB2, we tested it for activity in HEK cells expressing GIRK channels but not rCB2. Submaximal concentrations of acetylcholine were used as the agonist, targeting an M4 muscarinic receptor expressed in these HEK/GIRK cells. […] It was also critical to determine if mycophenolate mofetil was selective for the rCB2 versus rCB1 receptors, as activation of rCB1 receptors can have negative side effects, including anxiety, paranoia, and psychosis. […]
Thallium flux assays were performed as previously described in Niswender et al., 2008 [31]. […] Thallium flux was measured using the Hamamatsu FDSS/μCELL Kinetic Plate Imager (Bridgewater, NJ, USA). After the establishment of a fluorescence baseline (excitation, 480 ± 20 nm; emission, 540 ± 30 nm), 20 µL (2×) of test compound was added to the cells at 1 s and the response was measured. […] Raw kinetic data were analyzed in a multi-step process: (1) Fluorescence readings for each time point in a well were divided by the fluorescence reading at the initial time point to account for differences in cell number, non-uniform illumination, and dye-loading. […]

Human CB2 = Human CB2 (Homo sapiens, UniProt P34972); test: Activity at the human CB2 receptor (thallium flux)
rat CB2 = biological target: T2, rat CB2 (Rattus norvegicus, UniProt Q9QZN9); test: PI hydrolysis (IP1) assay in HEK/Gqi9 cells expressing rat CB2; parameters: expressed in transfected cells; conditions: rCB2/Gqi9 cells
T2 sequence (Q9QZN9 1-360): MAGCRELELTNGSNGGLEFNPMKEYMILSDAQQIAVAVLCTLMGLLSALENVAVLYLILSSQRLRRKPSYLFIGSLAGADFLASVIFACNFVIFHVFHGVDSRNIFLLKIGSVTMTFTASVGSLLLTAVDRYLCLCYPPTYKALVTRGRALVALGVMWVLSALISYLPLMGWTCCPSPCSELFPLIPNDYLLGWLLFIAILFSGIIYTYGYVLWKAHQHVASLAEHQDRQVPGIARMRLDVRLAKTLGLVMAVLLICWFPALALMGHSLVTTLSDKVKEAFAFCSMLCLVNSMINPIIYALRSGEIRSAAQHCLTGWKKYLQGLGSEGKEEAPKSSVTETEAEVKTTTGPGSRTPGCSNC
Experimental: In a complementary assay, we used phosphoinositide (PI) hydrolysis in the presence of the chimeric G protein, Gqi9, to assess activity.
One day prior to experimentation, selected HEK/Gqi9 monoclonal cells stably expressing rat CB2 were plated onto poly-D-lysine coated clear-bottom 384-well plates (15,000 cells per well) in DMEM supplemented with 10% FBS and 20 mM HEPES. Ten minutes prior to the assay, the cell culture medium was replaced with 20 µL 37 °C Hank’s balanced salt solution (HBSS; with Ca^2+, Mg^2+, glucose). IP1 stimulation was then initiated by adding 5 µL of 5× agonist dissolved in HBSS plus 40 mM Li^+, and cells were incubated for an additional hour before aspiration and addition of Lysis Buffer. IP1 levels were determined using the Cisbio HTRF IP-ONE assay kit according to the manufacturer’s instructions, and fluorescence was measured using an Envision plate reader (PerkinElmer, Waltham, MA, USA). Data were acquired as HTRF ratio (665/620) and expressed as nanomolar levels of IP1.

Sequence of Human CB2 (P34972 whole entry): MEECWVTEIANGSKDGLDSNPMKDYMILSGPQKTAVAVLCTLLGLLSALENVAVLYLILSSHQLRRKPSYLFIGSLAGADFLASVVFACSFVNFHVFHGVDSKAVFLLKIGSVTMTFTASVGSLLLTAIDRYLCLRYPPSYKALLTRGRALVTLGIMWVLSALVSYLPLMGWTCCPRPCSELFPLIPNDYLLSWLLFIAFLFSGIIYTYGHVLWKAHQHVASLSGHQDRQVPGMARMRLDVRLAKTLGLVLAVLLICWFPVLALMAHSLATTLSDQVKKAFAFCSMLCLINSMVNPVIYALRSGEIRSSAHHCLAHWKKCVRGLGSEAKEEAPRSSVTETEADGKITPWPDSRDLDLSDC

| SMILES | HEK GIRK (+) ACh pEC50 ± SEM % Max ± SEM [1] | human CB2 receptor % Max (Human CB2) [%] | EC50 (Human CB2; read-out: human CB2 receptor pEC50 (converted)) [µM] | PI hydrolysis Max IP1, absence of 2-AG (rat CB2; absence of 2-AG, IP1 concentration) [nM] | pEC50 (rat CB2; absence of 2-AG, read-out: PI hydrolysis potency, absence of 2-AG) | PI hydrolysis Max IP1, presence of 2-AG (rat CB2; presence of EC20 2-AG, IP1 concentration) [nM] | pEC50 (rat CB2; presence of EC20 2-AG, read-out: PI hydrolysis potency, presence of 2-AG) |
| --- | --- | --- | --- | --- | --- | --- | --- |
| COc1c(C)c2c(c(O)c1C/C=C(\C)CCC(=O)OCCN1CCOCC1)C(=O)OC2 [Mycophenolate mofetil] | Inactive | 36 ± 4 | 2 | 438 ± 32 | 6.28 | 633 ± 122 | 6.15 |
| COc1c(C)c2c(c(O)c1C/C=C(\C)CCC(=O)O)C(=O)OC2 [Mycophenolic acid] | Inactive |  |  |  |  |  |  |
